Legend:
[1] = test system: mice; test: Observation of mouse behavior / signs of toxicity after systemic administration; type: in vivo
Description: To prepare for in vivo studies, we investigated the pharmacokinetic properties of compound 6. […] For comparison, we determined the plasma and brain loxapine levels. […] Collectively, the pharmacological and pharmacokinetic profiles of compound 6 make it an excellent molecule for in vivo pharmacodynamic studies.
With regard to the safety profile, it should be considered that Slack is expressed in various neuronal populations in the CNS, and gain‐of‐function mutations of KCNT1 have been associated with epileptic encephalopathies in humans.^[ [46] ^] Limited information exists concerning the incidence of seizures during loxapine treatment. […] However, the epileptogenic potential of brain‐penetrant Slack activators such as compound 6 should be carefully assessed in the future.

[2] = test system: mice; test: SLIGRL-induced itch behavior; type: in vivo, mouse; conditions: 10 mg kg−1 i.p.
Description: (§1) Chloroquine‐induced scratching in mice is driven by MrgprA3 activation in the NP2 population of sensory neurons.^[ [10], [29] ^] To further explore the antipruritic efficacy of compound 6 in histamine‐independent itch, we assessed the behavioral response after s.c. injection of the peptide Ser‐Leu‐Ile‐Gly‐Arg‐Leu (SLIGRL) that evokes scratching by activation of MrgprC11,^[ [30] ^] which is expressed in the NP2 and NP3 population.^[ [10] ^] […] Moreover, compound 6 ameliorated histamine‐independent itch evoked by s.c. injection of β‐alanine that activates MrgprD^[ [31] ^] in the NP1 population of sensory neurons^[ [10] ^] (Figure 3F). In contrast, scratching induced by subcutaneous histamine was not affected by compound 6 (Figure 3G). The lack of an effect on histamine‐evoked scratching was supported by the low affinity of compound 6 for histamine H1 receptors, which was determined using a [^3H]‐pyrilamine competition binding assay in vitro (Table S3, Supporting Information). […] We also investigated the efficacy of compound 6 after peroral (p.o.) delivery.
(§2) Three to four days before the day of the experiment, the fur on the dorsolateral aspect of the neck was shaved under brief isoflurane anesthesia. […] Number of scratching bouts directed toward the nape of the neck was assessed over 30 min by videotaping. […]

[3] = test system: mice; test: β-alanine-induced itch behavior; type: in vivo, mouse; conditions: i.p.
Description: as §1, §2

[4] = test system: mice; test: Pulse oximetry in conscious, freely moving mice; conditions: 10 mg kg−1 i.p., observation period of 30 min
Procedure: To measure cardiovascular function, a pulse oximeter (MouseOX Plus, Starr Life Sciences Corp.) was used in conscious, freely moving mice. After three consecutive days of habituating the mice to the collar clip for at least 30 min, baseline measurements were performed. […] All the datasets were sampled at 1 Hz, error‐corrected according to the manufacturer's instructions, and averaged over 300 s for each time point.

[5] = test system: mice; test: Hargreaves test; type: in vivo; conditions: 10 mg kg−1 i.p., hindpaws, vs vehicle
Procedure: An infrared heat source (intensity set to 25) was applied to the plantar surface of the hind paw, and the time until the animal elicited a withdrawal response was determined. Each hind paw was measured 4–5 times with a minimum interval of 20 s between measurements, and the mean value was calculated. Measurements that reached the cutoff time (20 s) were excluded.

[6] = molecular target: histamine H1 receptor (Homo sapiens, UniProt P35367); test: SafetyScreen44 panel; type: binding; set-up: purchased Eurofins Cerep P270; conditions: 10 µM
Sequence of histamine H1 receptor (P35367 whole entry): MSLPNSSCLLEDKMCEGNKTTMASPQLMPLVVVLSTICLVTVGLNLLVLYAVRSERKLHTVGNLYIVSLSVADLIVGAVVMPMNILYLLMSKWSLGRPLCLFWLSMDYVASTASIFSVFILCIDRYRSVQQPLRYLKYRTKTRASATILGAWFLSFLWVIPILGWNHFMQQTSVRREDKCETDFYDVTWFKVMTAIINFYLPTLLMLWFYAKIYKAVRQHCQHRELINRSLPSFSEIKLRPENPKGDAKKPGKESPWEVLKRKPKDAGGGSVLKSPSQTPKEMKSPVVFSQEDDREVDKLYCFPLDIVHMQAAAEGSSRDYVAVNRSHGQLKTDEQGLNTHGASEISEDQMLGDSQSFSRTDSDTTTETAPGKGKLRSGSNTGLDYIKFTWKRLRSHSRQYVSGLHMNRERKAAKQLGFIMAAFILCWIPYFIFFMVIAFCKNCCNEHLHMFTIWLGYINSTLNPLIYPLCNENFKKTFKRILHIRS
Procedure: (§3) Measurements were performed in duplicate.
(§4) channel, which were obtainedfrom ratspecimens).
(§5) in brackets) specific for each target.

[7] = molecular target: T1, muscarinic M1 receptor (Homo sapiens, UniProt P11229); test: biochemical; conditions: read-out: binding inhibition
T1 construct: purchased Eurofins Cerep P270
T1 sequence (P11229 whole entry): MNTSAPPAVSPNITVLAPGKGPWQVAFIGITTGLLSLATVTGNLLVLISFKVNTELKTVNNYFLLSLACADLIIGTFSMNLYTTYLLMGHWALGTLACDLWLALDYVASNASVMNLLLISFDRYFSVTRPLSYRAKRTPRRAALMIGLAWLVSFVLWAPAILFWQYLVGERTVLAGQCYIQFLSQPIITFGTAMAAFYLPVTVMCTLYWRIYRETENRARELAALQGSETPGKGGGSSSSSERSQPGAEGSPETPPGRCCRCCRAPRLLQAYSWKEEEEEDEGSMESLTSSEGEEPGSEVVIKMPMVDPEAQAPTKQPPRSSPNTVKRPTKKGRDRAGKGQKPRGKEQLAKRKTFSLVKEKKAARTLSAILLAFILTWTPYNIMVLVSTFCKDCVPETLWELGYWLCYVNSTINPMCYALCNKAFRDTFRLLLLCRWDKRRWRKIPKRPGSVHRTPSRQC
Procedure: as §3, §4, §5

[8] = molecular target: T2, muscarinic M3 receptor (Homo sapiens, UniProt P20309); test: biochemical; conditions: read-out: binding inhibition
T2 construct: purchased Eurofins Cerep P270
T2 sequence (P20309 whole entry): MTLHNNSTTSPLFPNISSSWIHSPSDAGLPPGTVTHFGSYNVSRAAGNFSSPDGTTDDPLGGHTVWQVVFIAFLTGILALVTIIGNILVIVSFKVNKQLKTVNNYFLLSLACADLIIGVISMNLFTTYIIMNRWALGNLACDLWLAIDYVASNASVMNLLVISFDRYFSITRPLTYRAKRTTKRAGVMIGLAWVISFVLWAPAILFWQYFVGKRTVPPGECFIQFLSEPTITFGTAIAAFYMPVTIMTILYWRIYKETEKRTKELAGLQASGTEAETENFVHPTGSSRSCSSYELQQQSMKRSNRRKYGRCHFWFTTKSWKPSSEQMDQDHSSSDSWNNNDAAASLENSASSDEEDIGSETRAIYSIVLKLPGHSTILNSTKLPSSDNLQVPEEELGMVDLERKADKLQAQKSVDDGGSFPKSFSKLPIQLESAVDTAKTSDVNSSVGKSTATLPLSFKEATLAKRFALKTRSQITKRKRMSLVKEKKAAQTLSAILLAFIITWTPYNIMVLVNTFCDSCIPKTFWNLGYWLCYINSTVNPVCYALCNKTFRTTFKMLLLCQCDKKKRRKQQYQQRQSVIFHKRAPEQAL
Procedure: as §3, §4, §5

[9] = test system: Na+ channel; test: SafetyScreen44 panel; conditions: 10 µM

In the case of O=C(O)COCCN1CCN(C2=Nc3ccccc3Oc3ccc(Cl)cc32)CC1 [Compound 6], the “impairment of mouse behavior” value ([1]; 10 mg kg−1 i.p.) is reported as “No obvious impairment of mouse behavior”, the “overt signs of seizures” value ([1]; systemic administration, doses up to 30 mg kg−1) is reported as “did not observe any overt signs of seizures” and the SLIGRL-induced scratching behavior [2] is reported as “significantly inhibited”. The “itch evoked by s.c. injection of β-alanine” value [3] was “ameliorated”, the breath rate [4] was “did not affect” and the heart rate [4] was “did not affect”. The “thermal sensitivity (Hargreaves test)” value [5] was “Neither mechanical nor thermal sensitivity was altered” and the binding inhibition [6] was “substantial binding”.
CN1CCN(C2=Nc3ccccc3Oc3ccc(Cl)cc32)CC1 [Loxapine, reference compound] was tested, and the inhibition at 10 µM [7] was greater than 50%, the inhibition at 10 µM [8] was greater than 50% and the binding inhibition [9] was “higher than 50%”.

Source: article PMC11022729 (Advanced Science, 2024)
